The subject of data set [1] is Bovine viral diarrhea (BVD) virus. In words: Anti-BVDV CPE inhibition assay in MDBK cells. The following applies: for EC50: Bovine viral diarrhea virus isolates and strains, MDBK, in Bos taurus, 96 h; for SI (selectivity index, ratio of CC50 and EC50): CC50/EC50, MDBK cells, BVD virus.
The nature of data set [2]: Cytotoxicity in MDBK cells (no BVD virus added). The following applies: bovine, MDBK cells (Madin-Darby bovine kidney), no virus added.

The values below come from US12577242B2, “Pyrrolopyridine and imidazopyridine antiviral compounds” (KATHOLIEKE UNIVERSITEIT LEUVEN, priority 2020, dated 2026).

Bounds are passed on as bounds.

Turning to `Cc1ccc2sc(Cn3ccc4nc(-c5cnn(C)c5C)nc-4c3)nc2c1` [CPD-2, 2-((2-(1,5-dimethyl-1H-pyrazol-4-yl)-5H-imidazo[4,5-c]pyridin-5-yl)methyl)-5-methylbenzo[d]thiazole], in data set [1], a half-maximal response (EC50) required 79 ± 4 nM; the “SI (selectivity index, ratio of CC50 and EC50)” value is reported as above 633. For the same compound, the CC50 at 4 days in data set [2] was above 50000 nM.

As for `Cc1c(-c2nc3ccn(Cc4nc5ccccc5s4)cc-3n2)cnn1C` [CPD-3, 2-((2-(1,5-dimethyl-1H-pyrazol-4-yl)-5H-imidazo[4,5-c]pyridin-5-yl)methyl)benzo[d]thiazole], in data set [1], the EC50 amounted to 78 ± 5 nM; the “SI (selectivity index, ratio of CC50 and EC50)” value was above 641. In data set [2], this compound returned a CC50 at 4 days above 50000 nM.

Regarding `Cc1c(-c2nc3ccn(Cc4nc5cc(Cl)ccc5s4)cc-3n2)cnn1C` [CPD-4, 5-chloro-2-((2-(1,5-dimethyl-1H-pyrazol-4-yl)-5H-imidazo[4,5-c]pyridin-5-yl)methyl)benzo[d]thiazole], in data set [1], a half-maximal effect (EC50) was put at 84 ± 3 nM; the “SI (selectivity index, ratio of CC50 and EC50)” value is on record as above 595. Further, the CC50 at 4 days in data set [2] was above 50000 nM.

Regarding `Cc1c(-c2nc3ccn(Cc4nc5ccc(Cl)cc5s4)cc-3n2)cnn1C` [CPD-5, 6-chloro-2-((2-(1,5-dimethyl-1H-pyrazol-4-yl)-5H-imidazo[4,5-c]pyridin-5-yl)methyl)benzo[d]thiazole], in data set [1], the EC50 was 27 ± 27 nM; the “SI (selectivity index, ratio of CC50 and EC50)” value is above 1852. This compound came in with a cytotoxic concentration (CC50) at 4 days in data set [2] above 50000 nM.

`Cc1c(-c2nc3ccn(Cc4nc5ccc6ccccc6c5s4)cc-3n2)cnn1C` [CPD-6, 2-((2-(1,5-dimethyl-1H-pyrazol-4-yl)-5H-imidazo[4,5-c]pyridin-5-yl)methyl)naphtho[2,1-d]thiazole]: in data set [1], it took 14 ± 1 nM to reach a half-maximal effect (EC50); the “SI (selectivity index, ratio of CC50 and EC50)” value was above 3571. In addition, in data set [2], the CC50 at 4 days was above 50000 nM.

For the compound `Cc1ccc2oc(Cn3ccc4nc(-c5cnn(C)c5C)nc-4c3)nc2c1` [CPD-8, 2-((2-(1,5-dimethyl-1H-pyrazol-4-yl)-5H-imidazo[4,5-c]pyridin-5-yl)methyl)-5-methylbenzo[d]oxazole], in data set [1], the midpoint of the response, the EC50, lay at 79 ± 4 nM; the “SI (selectivity index, ratio of CC50 and EC50)” value is above 633. The compound also registered a CC50 at 4 days in data set [2] above 50000 nM.

Take `Cc1c(-c2nc3ccn(Cn4nnc5ccccc54)cc-3n2)cnn1C` [CPD-9, 1-((2-(1,5-dimethyl-1H-pyrazol-4-yl)-5H-imidazo[4,5-c]pyridin-5-yl)methyl)-1H-benzo[d][1,2,3]triazole]: in data set [1], the EC50 was 346 ± 86 nM; the “SI (selectivity index, ratio of CC50 and EC50)” value is on record as 64. For the same compound, in data set [2], the midpoint of cytotoxicity, the CC50 at 4 days, lay at 22000 nM.

Turning to `Cc1ccc2sc(Cn3ccc4nc(-c5cn(C)nc5C)nc-4c3)nc2c1` [CPD-11, 2-((2-(1,3-dimethyl-1H-pyrazol-4-yl)-5H-imidazo[4,5-c]pyridin-5-yl)methyl)-5-methylbenzo[d]thiazole], in data set [1], the EC50 was 300 ± 100 nM; the “SI (selectivity index, ratio of CC50 and EC50)” value is above 167. The compound further yielded a CC50 at 4 days in data set [2] above 50000 nM.

`Cc1ccc2oc(Cn3ccc4nc(-c5cn(C)nc5C)nc-4c3)nc2c1` [CPD-12, 2-((2-(1,3-dimethyl-1H-pyrazol-4-yl)-5H-imidazo[4,5-c]pyridin-5-yl)methyl)-5-methylbenzo[d]oxazole]: in data set [1], the EC50 stood at 256 ± 111 nM; the “SI (selectivity index, ratio of CC50 and EC50)” value was above 195. This compound also yielded a CC50 at 4 days in data set [2] above 50000 nM.

As to `Cc1nn(C)c(C)c1-c1nc2ccn(Cc3cc(-c4cc(F)ccc4F)no3)cc-2n1` [CPD-13, 3-(2,5-difluorophenyl)-5-((2-(1,3,5-trimethyl-1H-pyrazol-4-yl)-5H-imidazo[4,5-c]pyridin-5-yl)methyl)isoxazole], in data set [1], a half-maximal response (EC50) required 95 ± 22 nM; the “SI (selectivity index, ratio of CC50 and EC50)” value is on record as above 526. The compound also displayed a 50% cytotoxic concentration (CC50) at 4 days in data set [2] above 50000 nM.

As for `COc1ncccc1-c1nc2ccn(Cc3nc4ccc(C)cc4s3)cc-2n1` [CPD-14, 2-((2-(2-methoxypyridin-3-yl)-5H-imidazo[4,5-c]pyridin-5-yl)methyl)-6-methylbenzo[d]thiazole], in data set [1], a half-maximal response (EC50) required 20 ± 4 nM; the “SI (selectivity index, ratio of CC50 and EC50)” value is given as above 2500. The CC50 at 4 days in data set [2] is above 50000 nM.

In the case of `COc1ncccc1-c1nc2ccn(Cc3nc4cc(C)ccc4s3)cc-2n1` [CPD-15, 2-((2-(2-methoxypyridin-3-yl)-5H-imidazo[4,5-c]pyridin-5-yl)methyl)-5-methylbenzo[d]thiazole], in data set [1], the EC50 is 86 ± 4 nM; the “SI (selectivity index, ratio of CC50 and EC50)” value is reported as above 581. Moreover, the CC50 at 4 days in data set [2] is above 50000 nM.

For the compound `COc1ncccc1-c1nc2ccn(Cc3nc4cc(C)ccc4o3)cc-2n1` [CPD-16, 2-((2-(2-methoxypyridin-3-yl)-5H-imidazo[4,5-c]pyridin-5-yl)methyl)-5-methylbenzo[d]oxazole], in data set [1], the 50% effective concentration (EC50) worked out at 117 nM; the “SI (selectivity index, ratio of CC50 and EC50)” value is recorded as above 427. The same compound came in with a CC50 at 4 days in data set [2] above 50000 nM.

Turning to `COc1ncccc1-c1nc2ccn(Cc3cc(-c4cc(F)ccc4F)no3)cc-2n1` [CPD-17, 3-(2,5-difluorophenyl)-5-((2-(2-methoxypyridin-3-yl)-5H-imidazo[4,5-c]pyridin-5-yl)methyl)isoxazole], in data set [1], the half-maximal effective concentration (EC50) was 72 ± 2 nM; the “SI (selectivity index, ratio of CC50 and EC50)” value stood at 1389. In data set [2], this compound yielded a CC50 at 4 days of 100000 nM.

As to `COc1ccccc1-c1nc2ccn(Cc3nc4ccc(C)cc4s3)cc-2n1` [CPD-18, 2-((2-(2-methoxyphenyl)-5H-imidazo[4,5-c]pyridin-5-yl)methyl)-6-methylbenzo[d]thiazole], in data set [1], the EC50 turned out to be 2 ± 1 nM; the “SI (selectivity index, ratio of CC50 and EC50)” value is 10000. Moreover, in data set [2], half-maximal cytotoxicity (CC50 at 4 days) was put at 20000 nM.

In the case of `COc1ccccc1-c1nc2ccn(Cc3cc(-c4cc(F)ccc4F)no3)cc-2n1` [CPD-19, 3-(2,5-difluorophenyl)-5-((2-(2-methoxyphenyl)-5H-imidazo[4,5-c]pyridin-5-yl)methyl)isoxazole], in data set [1], the 50% effective concentration (EC50) came out at 4 ± 1 nM; the “SI (selectivity index, ratio of CC50 and EC50)” value came out at 4750. The compound also came in with a CC50 at 4 days in data set [2] of 19000 nM.

With `COc1ccccc1-c1nc2ccn(Cn3nnc4ccccc43)cc-2n1` [CPD-20, 1-((2-(2-methoxyphenyl)-5H-imidazo[4,5-c]pyridin-5-yl)methyl)-1H-benzo[d][1,2,3]triazole], in data set [1], it took 87 ± 3 nM to reach a half-maximal effect (EC50); the “SI (selectivity index, ratio of CC50 and EC50)” value is above 575. In data set [2], this compound showed a CC50 at 4 days above 50000 nM.

With `Cc1ccc2nc(Cn3ccc4nc(-c5ccccc5OC(F)F)nc-4c3)sc2c1` [CPD-21, 2-((2-(2-(difluoromethoxy)phenyl)-5H-imidazo[4,5-c]pyridin-5-yl)methyl)-6-methylbenzo[d]thiazole], in data set [1], the midpoint of the response, the EC50, lay at 409 nM; the “SI (selectivity index, ratio of CC50 and EC50)” value came out at 76. The same compound yielded a CC50 at 4 days in data set [2] of 31000 nM.

Take `Cc1ccc2nc(Cn3ccc4nc(-c5ccccc5F)nc-4c3)sc2c1` [CPD-22, 2-((2-(2-fluorophenyl)-5H-imidazo[4,5-c]pyridin-5-yl)methyl)-6-methylbenzo[d]thiazole]: in data set [1], the EC50 was 19 ± 5 nM; the “SI (selectivity index, ratio of CC50 and EC50)” value is on record as above 5263. The compound further yielded a CC50 at 4 days in data set [2] above 100000 nM.

Take `Cc1ccc2sc(Cn3ccc4nc(-c5ccccc5F)nc-4c3)nc2c1` [CPD-23, 2-((2-(2-fluorophenyl)-5H-imidazo[4,5-c]pyridin-5-yl)methyl)-5-methylbenzo[d]thiazole]: in data set [1], it took 84 ± 29 nM to reach a half-maximal effect (EC50); the “SI (selectivity index, ratio of CC50 and EC50)” value was above 595. For the same compound, in data set [2], the CC50 at 4 days is above 50000 nM.

Consider `Fc1ccccc1-c1nc2ccn(Cc3nc4ccccc4s3)cc-2n1` [CPD-24, 2-((2-(2-fluorophenyl)-5H-imidazo[4,5-c]pyridin-5-yl)methyl)benzo[d]thiazole], for which, in data set [1], the EC50 worked out at 299 ± 91 nM; the “SI (selectivity index, ratio of CC50 and EC50)” value is above 167. Also, the CC50 at 4 days in data set [2] is above 50000 nM.

As for `Fc1ccccc1-c1nc2ccn(Cc3nc4ccc(Cl)cc4s3)cc-2n1` [CPD-25, 6-chloro-2-((2-(2-fluorophenyl)-5H-imidazo[4,5-c]pyridin-5-yl)methyl)benzo[d]thiazole], in data set [1], the half-maximal effective concentration (EC50) came out at 78 ± 4 nM; the “SI (selectivity index, ratio of CC50 and EC50)” value was above 641. The same compound returned a half-maximal cytotoxic concentration (CC50) at 4 days in data set [2] above 50000 nM.

As to `Fc1ccccc1-c1nc2ccn(Cc3nc4cc(Cl)ccc4s3)cc-2n1` [CPD-26, 5-chloro-2-((2-(2-fluorophenyl)-5H-imidazo[4,5-c]pyridin-5-yl)methyl)benzo[d]thiazole], in data set [1], the EC50 was 96 ± 6 nM; the “SI (selectivity index, ratio of CC50 and EC50)” value is reported as above 521. This compound also registered a CC50 at 4 days in data set [2] above 50000 nM.

In the case of `OCc1ccc2nc(Cn3ccc4nc(-c5ccccc5F)nc-4c3)sc2c1` [CPD-27, (2-((2-(2-fluorophenyl)-5H-imidazo[4,5-c]pyridin-5-yl)methyl)benzo[d]thiazol-6-yl)methanol], in data set [1], the EC50 was 366 nM; the “SI (selectivity index, ratio of CC50 and EC50)” value is listed as above 137. Besides, the half-maximal cytotoxic concentration (CC50) at 4 days in data set [2] was above 50000 nM.

Take `Fc1ccccc1-c1nc2ccn(Cc3ncc(-c4ccccc4)s3)cc-2n1` [CPD-28, 2-((2-(2-fluorophenyl)-5H-imidazo[4,5-c]pyridin-5-yl)methyl)-5-phenylthiazole]: in data set [1], the EC50 was found to be 82 nM; the “SI (selectivity index, ratio of CC50 and EC50)” value was above 610. Moreover, the CC50 at 4 days in data set [2] was above 50000 nM.

For `Fc1ccccc1-c1nc2ccn(Cc3ccc(Cl)s3)cc-2n1` [CPD-30, 5-((5-chlorothiophen-2-yl)methyl)-2-(2-fluorophenyl)-5H-imidazo[4,5-c]pyridine], in data set [1], it took 129 ± 61 nM to reach a half-maximal effect (EC50); the “SI (selectivity index, ratio of CC50 and EC50)” value was above 388. In data set [2], this compound gave a CC50 at 4 days above 50000 nM.

As for `Cc1ccc2oc(Cn3ccc4nc(-c5ccccc5F)nc-4c3)nc2c1` [CPD-31, 2-((2-(2-fluorophenyl)-5H-imidazo[4,5-c]pyridin-5-yl)methyl)-5-methylbenzo[d]oxazole], in data set [1], a half-maximal response (EC50) required 306 ± 98 nM; the “SI (selectivity index, ratio of CC50 and EC50)” value is recorded as above 163. Moreover, in data set [2], the CC50 at 4 days is above 50000 nM.

As for `Cc1ccc2nc(Cn3ccc4nc(-c5ccccc5F)nc-4c3)oc2c1` [CPD-32, 2-((2-(2-fluorophenyl)-5H-imidazo[4,5-c]pyridin-5-yl)methyl)-6-methylbenzo[d]oxazole], in data set [1], the EC50 is 377 ± 16 nM; the “SI (selectivity index, ratio of CC50 and EC50)” value is listed as above 133. Moreover, in data set [2], the cytotoxic concentration (CC50) at 4 days was above 50000 nM.

For orientation: EC50 means the concentration giving half of the maximal effect. As a reminder, the CC50 is the concentration at which the toxic effect on the cells reaches its halfway point. A low value points to harm at low concentration.
